Laboratory results published in patent publication US11274100B2, “EP300/CREBBP inhibitor” (Daiichi Sankyo Company, Limited, priority 2017, dated 2022).

Legend:
H3K27Ac = assay: Intracellular H3K27Ac inhibitory activity in LK2 cells (Test Example 2); format: cell-based; conditions: Homo sapiens, LK-2, cultured with compound for 3 hours, read-out: Test Example 2 H3K27Ac Inhibition (LK2) IC50
Summary of the method: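 Human squamous lung cancer LK2 cells (40000/well) cultured overnight at 37 °C, 5% CO2 before treatment. After paraformaldehyde fixation, peroxide quench and blocking, H3K27 acetylation detected with anti-acetyl-H3K27 rabbit mAb (4 °C overnight) and HRP secondary; chemiluminescent read-out.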

CREBBP = CREBBP (Homo sapiens, UniProt Q92793); assay: Histone acetyltransferase inhibitory activity against CREBBP (Test Example 1); format: biochemical; conditions: 125 ng/mL CREBBP, 2 μM Acetyl-CoA, 100 nM Histone H4(1-25)-GSGSK (Biotin), 28° C. for 1 hour
Sequence of CREBBP (Q92793 whole entry): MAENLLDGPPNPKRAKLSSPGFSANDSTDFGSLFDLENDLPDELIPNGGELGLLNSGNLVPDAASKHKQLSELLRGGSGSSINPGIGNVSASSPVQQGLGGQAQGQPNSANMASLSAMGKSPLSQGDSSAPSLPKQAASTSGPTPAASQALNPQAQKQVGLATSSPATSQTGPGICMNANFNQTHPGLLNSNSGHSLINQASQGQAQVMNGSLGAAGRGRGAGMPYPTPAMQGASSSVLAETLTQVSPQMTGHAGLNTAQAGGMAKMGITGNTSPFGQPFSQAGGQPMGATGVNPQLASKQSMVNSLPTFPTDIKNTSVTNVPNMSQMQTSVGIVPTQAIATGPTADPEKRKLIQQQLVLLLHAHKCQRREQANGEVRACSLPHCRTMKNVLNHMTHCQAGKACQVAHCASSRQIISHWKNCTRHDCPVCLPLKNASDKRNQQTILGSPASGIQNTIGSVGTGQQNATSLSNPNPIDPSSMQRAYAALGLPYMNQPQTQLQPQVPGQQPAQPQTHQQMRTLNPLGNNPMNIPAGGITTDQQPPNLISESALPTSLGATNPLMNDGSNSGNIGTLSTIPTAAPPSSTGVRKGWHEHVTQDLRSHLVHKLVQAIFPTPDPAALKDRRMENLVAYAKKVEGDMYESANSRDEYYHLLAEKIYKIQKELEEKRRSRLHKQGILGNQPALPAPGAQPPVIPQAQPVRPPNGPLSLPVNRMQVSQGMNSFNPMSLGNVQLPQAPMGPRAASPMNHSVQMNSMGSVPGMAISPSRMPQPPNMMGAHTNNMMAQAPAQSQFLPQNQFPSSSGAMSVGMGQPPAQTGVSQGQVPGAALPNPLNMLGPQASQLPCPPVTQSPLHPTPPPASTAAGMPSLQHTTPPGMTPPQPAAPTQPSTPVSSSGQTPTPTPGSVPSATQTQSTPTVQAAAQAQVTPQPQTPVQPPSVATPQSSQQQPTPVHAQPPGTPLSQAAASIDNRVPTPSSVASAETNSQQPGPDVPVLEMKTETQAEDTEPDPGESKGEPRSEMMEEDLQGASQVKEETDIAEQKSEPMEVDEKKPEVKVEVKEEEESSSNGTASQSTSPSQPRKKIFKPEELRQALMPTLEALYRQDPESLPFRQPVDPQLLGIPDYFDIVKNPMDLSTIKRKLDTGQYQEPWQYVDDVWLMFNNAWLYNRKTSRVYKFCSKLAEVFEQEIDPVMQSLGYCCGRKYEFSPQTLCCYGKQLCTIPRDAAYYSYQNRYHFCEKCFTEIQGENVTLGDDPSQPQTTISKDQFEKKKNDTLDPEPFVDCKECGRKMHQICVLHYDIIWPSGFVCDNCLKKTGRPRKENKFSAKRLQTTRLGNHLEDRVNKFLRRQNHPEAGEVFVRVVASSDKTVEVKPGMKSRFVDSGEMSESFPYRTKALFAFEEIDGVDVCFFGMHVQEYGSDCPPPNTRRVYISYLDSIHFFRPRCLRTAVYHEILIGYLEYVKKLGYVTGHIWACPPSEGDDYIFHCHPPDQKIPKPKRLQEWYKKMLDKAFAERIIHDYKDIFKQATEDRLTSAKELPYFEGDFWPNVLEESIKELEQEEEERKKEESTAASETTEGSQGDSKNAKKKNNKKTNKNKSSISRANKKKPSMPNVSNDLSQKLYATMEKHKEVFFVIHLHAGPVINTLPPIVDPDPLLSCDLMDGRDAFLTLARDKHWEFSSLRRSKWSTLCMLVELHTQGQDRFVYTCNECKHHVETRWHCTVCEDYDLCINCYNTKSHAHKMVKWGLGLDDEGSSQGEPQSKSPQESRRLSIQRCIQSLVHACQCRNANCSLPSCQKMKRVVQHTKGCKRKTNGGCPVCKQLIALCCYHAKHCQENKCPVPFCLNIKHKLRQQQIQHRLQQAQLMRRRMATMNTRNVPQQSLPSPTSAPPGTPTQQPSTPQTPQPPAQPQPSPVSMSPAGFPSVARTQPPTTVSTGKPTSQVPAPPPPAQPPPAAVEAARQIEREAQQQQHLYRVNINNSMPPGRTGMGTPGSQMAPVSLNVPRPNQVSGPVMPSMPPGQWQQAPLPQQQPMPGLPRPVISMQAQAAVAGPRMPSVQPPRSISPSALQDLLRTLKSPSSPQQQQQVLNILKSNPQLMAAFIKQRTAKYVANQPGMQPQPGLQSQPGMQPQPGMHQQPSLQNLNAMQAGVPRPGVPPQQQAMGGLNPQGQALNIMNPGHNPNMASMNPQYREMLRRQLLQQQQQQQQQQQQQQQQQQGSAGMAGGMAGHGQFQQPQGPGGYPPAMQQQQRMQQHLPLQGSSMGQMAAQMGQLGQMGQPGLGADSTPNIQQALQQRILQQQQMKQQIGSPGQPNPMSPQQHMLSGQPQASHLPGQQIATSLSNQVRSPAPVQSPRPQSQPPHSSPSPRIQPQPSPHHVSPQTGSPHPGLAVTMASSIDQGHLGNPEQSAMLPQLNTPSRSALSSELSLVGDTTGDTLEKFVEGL
Summary of the method: (§1)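 Enzyme (50 ng/mL EP300 or 125 ng/mL CREBBP) incubated 1 h at 28° C with 2 μM acetyl-CoA, 100 nM biotinylated histone H4(1-25) peptide and 10 to 0.0006 μM compound in pH 8.0 Tris buffer with 330 nM trichostatin A, 1% DMSO. Reaction stopped with Lys-CoA; acetylation read by TR-FRET (Eu-anti pan-Ac/Sta-ULight) after overnight room-temperature incubation.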

EP300 = EP300 (Homo sapiens, UniProt Q09472); assay: Histone acetyltransferase inhibitory activity against EP300 (Test Example 1); format: biochemical; conditions: 50 ng/mL EP300, 2 μM Acetyl-CoA, 100 nM Histone H4(1-25)-GSGSK (Biotin), 28° C. for 1 hour
Sequence of EP300 (Q09472 whole entry): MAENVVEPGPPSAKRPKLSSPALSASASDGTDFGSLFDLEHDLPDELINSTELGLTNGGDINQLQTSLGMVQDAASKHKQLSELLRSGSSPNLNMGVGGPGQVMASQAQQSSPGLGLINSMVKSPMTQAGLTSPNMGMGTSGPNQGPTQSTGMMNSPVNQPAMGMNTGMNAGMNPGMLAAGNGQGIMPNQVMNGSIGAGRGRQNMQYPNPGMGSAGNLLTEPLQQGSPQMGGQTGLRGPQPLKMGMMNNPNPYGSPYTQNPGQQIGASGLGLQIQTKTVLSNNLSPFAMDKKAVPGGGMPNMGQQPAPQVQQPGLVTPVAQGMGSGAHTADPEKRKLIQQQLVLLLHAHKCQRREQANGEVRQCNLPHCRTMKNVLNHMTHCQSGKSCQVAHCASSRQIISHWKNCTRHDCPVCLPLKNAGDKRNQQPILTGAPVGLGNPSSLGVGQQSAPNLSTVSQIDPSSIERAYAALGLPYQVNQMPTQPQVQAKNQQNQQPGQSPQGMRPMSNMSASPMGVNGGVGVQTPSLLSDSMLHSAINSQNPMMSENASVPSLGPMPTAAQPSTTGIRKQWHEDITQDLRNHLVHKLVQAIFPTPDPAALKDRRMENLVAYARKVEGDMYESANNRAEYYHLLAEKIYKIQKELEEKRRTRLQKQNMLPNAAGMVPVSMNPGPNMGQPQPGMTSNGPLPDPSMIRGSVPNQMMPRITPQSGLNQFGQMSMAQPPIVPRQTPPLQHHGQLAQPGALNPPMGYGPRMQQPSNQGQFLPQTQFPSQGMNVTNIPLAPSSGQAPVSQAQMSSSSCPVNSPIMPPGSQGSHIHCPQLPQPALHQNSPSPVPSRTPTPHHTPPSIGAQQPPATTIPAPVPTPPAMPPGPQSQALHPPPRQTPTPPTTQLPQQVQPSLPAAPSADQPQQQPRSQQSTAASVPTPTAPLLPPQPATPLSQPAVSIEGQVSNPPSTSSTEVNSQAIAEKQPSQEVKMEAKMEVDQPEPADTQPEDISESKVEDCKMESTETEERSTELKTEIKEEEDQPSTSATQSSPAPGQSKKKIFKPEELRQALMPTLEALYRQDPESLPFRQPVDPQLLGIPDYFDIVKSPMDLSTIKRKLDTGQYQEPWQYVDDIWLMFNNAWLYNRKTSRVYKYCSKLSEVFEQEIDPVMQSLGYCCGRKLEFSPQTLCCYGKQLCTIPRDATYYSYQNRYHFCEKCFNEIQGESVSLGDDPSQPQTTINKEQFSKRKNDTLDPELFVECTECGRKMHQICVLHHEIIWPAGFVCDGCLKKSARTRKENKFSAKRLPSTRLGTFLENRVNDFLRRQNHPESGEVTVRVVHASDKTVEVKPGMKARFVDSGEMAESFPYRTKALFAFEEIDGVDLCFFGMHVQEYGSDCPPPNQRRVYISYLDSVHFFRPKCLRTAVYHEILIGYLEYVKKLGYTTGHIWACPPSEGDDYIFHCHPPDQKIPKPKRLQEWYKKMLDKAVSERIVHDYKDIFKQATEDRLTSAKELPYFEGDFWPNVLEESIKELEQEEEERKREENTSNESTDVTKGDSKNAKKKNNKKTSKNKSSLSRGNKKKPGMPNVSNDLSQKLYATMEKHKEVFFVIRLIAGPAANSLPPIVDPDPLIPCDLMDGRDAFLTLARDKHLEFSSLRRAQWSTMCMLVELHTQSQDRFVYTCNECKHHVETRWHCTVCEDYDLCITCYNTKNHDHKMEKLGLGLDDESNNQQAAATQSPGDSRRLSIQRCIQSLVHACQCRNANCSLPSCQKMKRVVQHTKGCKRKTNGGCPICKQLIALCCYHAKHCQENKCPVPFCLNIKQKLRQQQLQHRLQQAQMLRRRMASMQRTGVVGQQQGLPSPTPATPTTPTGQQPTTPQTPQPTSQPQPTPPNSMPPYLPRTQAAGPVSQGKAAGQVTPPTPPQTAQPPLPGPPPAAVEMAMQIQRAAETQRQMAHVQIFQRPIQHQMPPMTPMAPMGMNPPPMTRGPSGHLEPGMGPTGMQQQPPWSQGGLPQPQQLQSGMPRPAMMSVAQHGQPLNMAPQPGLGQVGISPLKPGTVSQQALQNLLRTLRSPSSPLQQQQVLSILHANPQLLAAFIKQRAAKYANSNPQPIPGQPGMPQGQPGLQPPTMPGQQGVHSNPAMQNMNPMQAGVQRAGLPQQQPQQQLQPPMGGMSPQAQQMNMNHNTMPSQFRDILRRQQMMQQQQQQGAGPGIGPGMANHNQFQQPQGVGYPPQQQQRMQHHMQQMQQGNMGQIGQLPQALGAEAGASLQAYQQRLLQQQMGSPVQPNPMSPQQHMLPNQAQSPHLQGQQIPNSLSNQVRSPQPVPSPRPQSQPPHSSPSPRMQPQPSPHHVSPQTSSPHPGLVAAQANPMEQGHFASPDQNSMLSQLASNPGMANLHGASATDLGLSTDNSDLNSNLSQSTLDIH
Summary of the method: as §1

TE-8 cells [1] = assay: Cell growth inhibitory activity, TE-8 cells (Test Example 3); format: cell-based; conditions: Homo sapiens, 72 h, cultured for 3 days, CellTiter-Glo
Summary of the method: (§2)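 LK2 and TE-8 […] cells in RPMI 1640 with 10% FBS exposed to 10-point 4-fold dilutions (10 mM to 38 nM, stock series) for 3 days. ATP luminescence (CellTiter-Glo 2.0) at day 0 and day 3 gave survival as (T3−C0)/(C3−C0)×100; GI50 from semilog plot.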

LK2 cells = assay: Cell growth inhibitory activity, LK2 cells (Test Example 3); format: cell-based; conditions: Homo sapiens, LK-2, 72 h, cultured for 3 days, CellTiter-Glo
Summary of the method: as §2

TE-8 cells [2] = assay: Antitumor activity in TE-8 cell subcutaneous transplant model (Test Example 5); format: in vivo, female BALB/c-nu/nu mice; conditions: TE-8 subcutaneous transplant model, dose 2 mg/kg/day, test end day
Description: [Test Example 5] Evaluation of Antitumor Activity in TE-8 Cell Subcutaneous Transplant Model
TE-8 cells were transplanted at a rate of 1×10^7 cells/head subcutaneously into a right abdominal site of each of female BALB/c-nu/nu mice, and 9 days after (Example 73) or 10 days after (Examples 35 and 84), the mice were grouped into groups each consisting of 5 mice based on an estimated tumor volume (longer diameter×shorter diameter×shorter diameter/2) and the weight. The TE-8 cells were purchased from Riken Cell Bank. The female BALB/c-nu/nu mice were purchased from Charles River Laboratories Japan, Inc.
(§3) From the day of grouping, the compound of Example 73 at a dose set to 2 mg/kg/day was orally administered in accordance with a schedule of twice a day continuously for 9 days (BID x 9). The estimated tumor volume of each individual was measured from the day of grouping until 18 days after the transplantation (test end day).
as §3, with “Besides, from” for “From”, “[…]” for “73”, “11” for “9”, “11).” for “9).”, “21” for “18”
The antitumor activity in LK2 cell subcutaneous transplant model of Test Example 4, the antitumor activity in TE-8 cell subcutaneous transplant model of Test Example 5, the antitumor activity in KARPASS-422 cell subcutaneous transplant model of Test Example 6, the antitumor activity in NMC10-15 cell subcutaneous transplant model of Test Example 7, and the antitumor activity in VCaP cell subcutaneous transplant model of Test Example 8 were respectively calculated on the end dates of the tests in accordance with the following equation: Tumor Growth Inhibition Rate %=(1−TVCt/TVCc)×100 TVC=(individual tumor volume on test end day)−(individual tumor volume on grouping day)
TVCt: average of TVC values of administration group
TVCc: average of TVC values of non-administration group

Row | IC50 (H3K27Ac) [nM] | IC50 (CREBBP) [nM] | IC50 (EP300) [nM] | Compound | GI50 (TE-8 cells [1]) [nM] | GI50 (LK2 cells) [nM] | Tumor Growth Inhibition Rate (TE-8 cells [2]) [%]
1 | 62 | 61 | 38 | O=C(Nc1ccc2[nH]ncc2n1)[C@H]1C[C@@H](F)CN1C(=O)C1(c2ccc(OC(F)F)c(F)c2)CCC(F)(F)CC1 [Example 89] | 491 | 279 | 
2 | 51 | 53 | 22 | [2H]C([2H])([2H])Oc1ccc(C2(C(=O)N3C[C@H](F)C[C@@H]3C(=O)Nc3ccc4[nH]ncc4n3)CCC(F)(F)CC2)cc1 [Example 92, (4R)-1-[(4,4-Difluoro-1-{4-[(^2H3)methyloxy]phenyl}cyclohexyl)carbonyl]-4-fluoro-N-1H-pyrazolo[4,3-b]pyridin-5-yl-D-prolinamide] | 308 | 195 | 
3 | 243 | 95 | 67 | COc1ccc(C2(C(=O)N3C[C@H](F)C[C@@H]3C(=O)Nc3ccc4[nH]ncc4c3F)CCC(F)(F)CC2)cc1 [Example 100] | 1370 | 660 | 
4 | 240 | 235 | 120 | CC(=O)Nc1ccc(C2(C(=O)N3C[C@H](F)C[C@@H]3C(=O)Nc3ccc4[nH]ncc4n3)CCC(F)(F)CC2)cc1 [Example 101, (4R)-1-({1-[4-(acetylamino)phenyl]-4,4-difluorocyclohexyl}carbonyl)-4-fluoro-N-1H-pyrazolo[4,3-b]pyridin-5-yl-D-prolinamide] | 1050 | 707 | 
5 | 311 | 76 | 56 | COc1cccc(C2(C(=O)N3C[C@H](F)C[C@@H]3C(=O)Nc3ccc4[nH]ncc4n3)CCC(F)(F)CC2)c1 [Example 93, (4R)-1-{[4,4-Difluoro-1-(3-methoxyphenyl)cyclohexyl]carbonyl}-4-fluoro-N-1H-pyrazolo[4,3-b]pyridin-5-yl-D-prolinamide] | 1050 | 746 | 
6 | 138 | 58 | 26 | O=C(Nc1ccc2[nH]ncc2n1)[C@H]1C[C@@H](F)CN1C(=O)C1(c2ccc(NS(=O)(=O)c3ccccc3)cc2)CCC(F)(F)CC1 [Example 104, (4R)-1-[(4,4-Difluoro-1-{4-[(phenylsulfonyl)amino]phenyl}cyclohexyl)carbonyl]-4-fluoro-N-1H-pyrazolo[4,3-b]pyridin-5-yl-D-prolinamide] | 656 | 512 | 
7 | 50 | 54 | 41 | COc1ccc(C2(C(=O)N3C[C@H](F)C[C@@H]3C(=O)Nc3ccc4[nH]ccc4n3)CCC(F)(F)CC2)cc1 [Example 51] | 916 | 351 | 
8 | 14 | 40 | 23 | O=C(Nc1ccc2[nH]ncc2n1)[C@H]1C[C@@H](F)CN1C(=O)C1(c2ccc(OCF)c(F)c2)CC(F)(F)C1 [Example 86] | 101 | 86.8 | 

More lines, now with the values behind:

Row | Compound | IC50 (H3K27Ac) [nM] | IC50 (CREBBP) [nM] | IC50 (EP300) [nM] | GI50 (TE-8 cells [1]) [nM] | GI50 (LK2 cells) [nM] | Tumor Growth Inhibition Rate (TE-8 cells [2]) [%]
9 | COc1ccc(C2(C(=O)N3C[C@H](F)C[C@@H]3C(=O)Nc3ccc4c(n3)CC(=O)N4)CCC(F)(F)CC2)cc1 [Example 73, (4R)-1-{[4,4-Difluoro-1-(4-methoxyphenyl)cyclohexyl]carbonyl}-4-fluoro-N-(2-oxo-2,3-dihydro-1H-pyrrolo[3,2-b]pyridin-5-yl)-D-prolinamide] | 70 | 148 | 52 | 620 | 610 | 65
10 | COc1ccc(C2(C(=O)N3C[C@H](F)C[C@@H]3C(=O)Nc3ccc4c(n3)CC(=O)N4)CCCCC2)cc1 [Example 66, (4R)-4-Fluoro-1-{[1-(4-methoxyphenyl)cyclohexyl]carbonyl}-N-(2-oxo-2,3-dihydro-1H-pyrrolo[3,2-b]pyridin-5-yl)-D-prolinamide] | 17 | 73 | 35 | 847 | 548 | 54
11 | [2H]C([2H])([2H])N(C(=O)C1(c2ccc(OC)cc2)CCC(F)(F)CC1)[C@H](CO)C(=O)Nc1ccc2[nH]ncc2n1 [Example 76, 4,4-Difluoro-N-[(2R)-3-hydroxy-1-oxo-1-(1H-pyrazolo[4,3-b]pyridin-5-ylamino)propan-2-yl]-1-(4-methoxyphenyl)-N—(^2H3)methylcyclohexanecarboxamide] | 12 | 92 | 43 | 127 | 68.9 | 
12 | COc1ccc(C2(C(=O)N3C[C@H](F)C[C@@H]3C(=O)Nc3ccc4[nH]ncc4n3)CCOCC2)cc1 [Example 45, (4R)-4-Fluoro-1-{[4-(4-methoxyphenyl)tetrahydro-2H-pyran-4-yl]carbonyl}-N-1H-pyrazolo[4,3-b]pyridin-5-yl-D-prolinamide] | 101 | 128 | 31 | 1350 | 733 | 
13 | COc1ccc(C2(C(=O)N3CC(=O)C[C@@H]3C(=O)Nc3ccc4[nH]ccc4n3)CCC(F)(F)CC2)cc1 [Example 75, 1-{[4,4-Difluoro-1-(4-methoxyphenyl)cyclohexyl]carbonyl}-4-oxo-N-1H-pyrrolo[3,2-b]pyridin-5-yl-D-prolinamide] | 67 | 77 | 43 | 613 | 398 | 
14 | COCO[C@@H]1CN(C(=O)C2(c3ccc(OC)cc3)CCC(F)(F)CC2)[C@H]1C(=O)Nc1ccc2[nH]ncc2n1 [Example 96, (2R,3R)-1-{[4,4-Difluoro-1-(4-methoxyphenyl)cyclohexyl]carbonyl}-3-(methoxymethoxy)-N-(1H-pyrazolo[4,3-b]pyridin-5-yl)azetidine-2-carboxamide] | > 1000 | 2170 | 2470 | > 10000 | > 10000 | 
15 | O=C(Nc1ccc2[nH]ncc2n1)[C@H]1C[C@@H](F)CN1C(=O)C1(c2ccc(OCF)cc2)CCCC1 [Example 49] | 39 | 25 | 13 | 68.1 | 75 | 
16 | COc1ccc(C2(C(=O)N3C[C@H](F)[C@@H](O)[C@@H]3C(=O)Nc3ccc4[nH]ncc4n3)CCC(F)(F)CC2)cc1 [Example 38] | 38 | 109 | 57 | 176 | 117 | 
17 | COc1ccc(C2(C(=O)N3CCC[C@@H]3C(=O)Nc3ccc4[nH]ncc4c3)CCCC2)cc1 [Example 24, N-1H-Indazol-5-yl-1-{[1-(4-methoxyphenyl)cyclopentyl]carbonyl}-D-prolinamide] | 916 | 128 | 254 | 4060 | 1620 | 
18 | CS(=O)(=O)c1ccc(C2(C(=O)N3C[C@H](F)C[C@@H]3C(=O)Nc3ccc4[nH]ncc4c3C#N)CCC(F)(F)CC2)cc1 [Example 99, (4R)—N-(4-Cyano-1H-indazol-5-yl)-1-({4,4-difluoro-1-[4-(methylsulfonyl)phenyl]cyclohexyl}carbonyl)-4-fluoro-D-prolinamide] | 62 | 205 | 76 | 399 | 300 | 
